Results taken from the supplement of paper PMC11061612.

Legend:
[1] = test system: NCI-H1092 (Small Cell Lung Carcinoma); test: Bliss excess, mean over the matrix (fraction); higher = more synergy
In short: (§1)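 Cell lines in DMEM/F12 or RPMI with 10% FBS were plated in 1536-well plates, held 24 hours at 37°C, 5% CO2, then given two-drug dose matrices for 72 hours (DMSO typically 0.2%). Viability was read by CellTiter-Glo 2.0 luminescence and scaled as inhibition from 0 (vehicle wells) to 1 (blank wells). Combination Emax is the second-highest inhibition in the matrix; Bliss excess is observed combination effect minus expected EA + EB − EA·EB, EA and EB being single-agent effects.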

[2] = test system: COLO-668 (Small Cell Lung Carcinoma); test: combination Emax (second highest fraction inhibited in the dose matrix, 72 h); higher = more inhibition; extreme values may be limits of the assay
In short: as §1

[3] = test system: COLO-679 (Melanoma); test: as above
In short: as §1

[4] = test system: Ca-Ski (Cervical Carcinoma); test: as above
In short: as §1

[5] = test system: DU-145 (Prostate Carcinoma); test: as above
In short: as §1

[6] = test system: KMRC-1 (Kidney Carcinoma); test: as above
In short: as §1

[7] = test system: ML-2 (Acute Myeloid Leukemia); test: as above
In short: as §1

[8] = test system: MV-4-11 (Acute Myeloid Leukemia); test: as above
In short: as §1

[9] = test system: Mo-T (Other Blood Carcinomas); test: as above
In short: as §1

[10] = test system: NCI-H1355 (Lung Adenocarcinoma); test: as above
In short: as §1

[11] = test system: NCI-H522 (Lung Adenocarcinoma); test: as above
In short: as §1

[12] = test system: OE33 (Esophageal Adenocarcinoma); test: as above
In short: as §1

[13] = test system: SK-LU-1 (Lung Adenocarcinoma); test: as above
In short: as §1

[14] = test system: SNU-387 (Hepatocellular Carcinoma); test: as above
In short: as §1

[15] = test system: SW872 (Other Solid Carcinomas); test: as above
In short: as §1

[16] = test system: SW982 (Other Solid Carcinomas); test: as above
In short: as §1

[17] = test system: Hey (Ovarian Carcinoma); test: Bliss excess, mean over the matrix (fraction); higher = more synergy
In short: as §1

[18] = test system: EW-1 (Ewing's Sarcoma); test: combination Emax (second highest fraction inhibited in the dose matrix, 72 h); higher = more inhibition; extreme values may be limits of the assay
In short: as §1

[19] = test system: G-401 (Other Solid Carcinomas); test: as above
In short: as §1

[20] = test system: LC-1-sq (Squamous Cell Lung Carcinoma); test: as above
In short: as §1
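For Bliss excess, mean over the matrix in this document: after 72 h of two-drug dosing.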

Row | SMILES | Bliss excess [1] | combination Emax [2] | combination Emax [3] | combination Emax [4] | combination Emax [5] | combination Emax [6] | combination Emax [7] | combination Emax [8] | combination Emax [9] | combination Emax [10] | combination Emax [11] | combination Emax [12] | combination Emax [13] | combination Emax [14] | combination Emax [15] | combination Emax [16] | Bliss excess [17] | combination Emax [18] | combination Emax [19] | combination Emax [20]
1 | CS(=O)(=O)CCNCc1ccc(-c2ccc3ncnc(Nc4ccc(OCc5cccc(F)c5)c(Cl)c4)c3c2)o1 [Lapatinib] + NC1(c2ccc(-c3nc4ccn5c(=O)[nH]nc5c4cc3-c3ccccc3)cc2)CCC1 [MK-2206] (first compound max 10 µM, 7x7, partner max 10 µM) | 0.0182 | 0.508 | 0.618 | 0.758 | 0.297 | 0.792 | 0.785 | 0.961 | 0.948 | 0.286 | 0.322 | 0.849 | 0.335 | 0.873 | 0.247 | 0.894 |  |  |  | 
2 | C[C@@H](Nc1cc(F)cc(F)c1)c1cc(C(=O)N(C)C)cc2c(=O)cc(N3CCOCC3)oc12 [AZD8186] + CC(=O)c1c(C)c2cnc(Nc3ccc(N4CCNCC4)cn3)nc2n(C2CCCC2)c1=O [Palbociclib] (first compound max 10 µM, 7x7, partner max 10 µM) |  | 0.378 | 0.269 | 0.484 | 0.417 | 0.566 | 0.686 | 0.859 | 0.383 | 0.425 | 0.147 | 0.477 | 0.434 | 0.614 | 0.359 | 0.639 |  |  |  | 
3 | CN(CCO)CC[C@H](CSc1ccccc1)Nc1ccc(S(=O)(=O)NC(=O)c2ccc(N3CCC([C@@H](O)c4ccccc4-c4ccc(Cl)cc4)CC3)cc2)cc1S(=O)(=O)C(F)(F)F [AZD4320] + CN(C)CCCOc1ccc(-c2ccc3ncc4c(c3c2)n(C2CCOCC2)c(=O)n4C)cn1 [AZD0156] (first compound max 1 µM, 7x7, partner max 1 µM) | -0.0078 |  | 0.162 | 0.268 | 0.0779 | 0.2 | 0.963 | 1 | 0.483 | 0.162 | 0.0875 | 0.0749 | 0.322 | 0.183 | 0.148 | 0.225 | -0.0272 | 0.705 | 0.266 | 0.217
4 | Cc1nc(-c2cn3c(n2)-c2ccc(-c4cnn(C(C)(C)C(N)=O)c4)cc2OCC3)n(C(C)C)n1 [Taselisib] + O=C(Nc1ccc2[nH]nc(-c3ccncc3)c2c1)[C@@H]1CCN(CC(=O)N2CCN(c3ccc(-c4ncccn4)cc3)CC2)C1 [SCH772984] (first compound max 10 µM, 7x7, partner max 5 µM) |  | 0.855 | 0.851 | 0.833 | 0.342 | 0.543 | 1 | 0.905 | 0.477 | 0.656 | 0.339 | 0.831 | 0.516 | 0.996 | 0.636 | 0.908 |  |  |  | 
5 | C=CCn1c(=O)c2cnc(Nc3ccc(N4CCN(C)CC4)cc3)nc2n1-c1cccc(C(C)(C)O)n1 [AZD1775] + Nc1ccn([C@@H]2O[C@H](CO)[C@@H](O)C2(F)F)c(=O)n1 [Gemcitabine] (first compound max 1 µM, partner max 0.3 µM) |  | 0.738 | 0.76 | 0.828 | 0.542 | 0.717 | 1 | 1 | 0.766 | 0.614 | 0.608 | 0.616 | 0.457 | 0.552 | 0.825 | 0.888 |  |  |  | 
6 | C[C@@H](Nc1cc(F)cc(F)c1)c1cc(C(=O)N(C)C)cc2c(=O)cc(N3CCOCC3)oc12 [AZD8186] + C1CN(CCC1(C(=O)N[C@@H](CCO)C2=CC=C(C=C2)Cl)N)C3=NC=NC4=C3C=CN4 [AZD5363] (first compound max 10 µM, 7x7, partner max 10 µM) |  | 0.327 | 0.273 | 0.463 | 0.189 | 0.618 | 0.558 | 0.731 | 0.347 | 0.395 | 0.0756 | 0.332 | 0.303 | 0.472 | 0.427 | 0.512 |  |  |  | 
7 | CC1(C)CCC(CN2CCN(c3ccc(C(=O)NS(=O)(=O)c4ccc(NCC5CCOCC5)c([N+](=O)[O-])c4)c(Oc4cnc5[nH]ccc5c4)c3)CC2)=C(c2ccc(Cl)cc2)C1 [Venetoclax] + CS(=O)(=O)CCNCc1ccc(-c2ccc3ncnc(Nc4ccc(OCc5cccc(F)c5)c(Cl)c4)c3c2)o1 [Lapatinib] (first compound max 1 µM, 7x7, partner max 10 µM) |  | 0.282 | 0.0296 | 0.503 | 0.127 | 0.595 | 0.977 | 1 | 0.33 | 0.16 | 0.153 | 0.485 | 0.183 | 0.078 | 0.0911 | 0.437 |  |  |  | 
8 | CN(CCO)CC[C@H](CSc1ccccc1)Nc1ccc(S(=O)(=O)NC(=O)c2ccc(N3CCC([C@@H](O)c4ccccc4-c4ccc(Cl)cc4)CC3)cc2)cc1S(=O)(=O)C(F)(F)F [AZD4320] + CS(=O)(=O)CCNCc1ccc(-c2ccc3ncnc(Nc4ccc(OCc5cccc(F)c5)c(Cl)c4)c3c2)o1 [Lapatinib] (first compound max 1 µM, 7x7, partner max 10 µM) |  | 0.975 | 0.308 | 1 | 0.174 | 0.944 | 1 | 1 | 0.959 | 0.264 | 0.237 | 0.806 | 0.47 | 0.939 | 0.198 | 0.968 |  |  |  | 
9 | C[C@@H]1COCCN1c1cc(C2([S@](C)(=N)=O)CC2)nc(-c2ccnc3[nH]ccc23)n1 [AZD6738] + Nc1ccn([C@@H]2O[C@H](CO)[C@@H](O)C2(F)F)c(=O)n1 [Gemcitabine] (first compound max 10 µM, 7x7, partner max 0.3 µM) |  | 0.854 | 0.82 | 0.883 | 0.583 | 0.801 | 1 | 1 | 0.812 | 0.722 | 0.912 | 0.752 | 0.415 | 0.718 | 0.907 | 0.949 |  |  |  | 
10 | CS(=O)(=O)CCNCc1ccc(-c2ccc3ncnc(Nc4ccc(OCc5cccc(F)c5)c(Cl)c4)c3c2)o1 [Lapatinib] + Cn1cnc2c(F)c(Nc3ccc(Br)cc3Cl)c(C(=O)NOCCO)cc21 [Selumetinib] (first compound max 10 µM, 7x7, partner max 10 µM) |  | 0.493 | 0.749 | 0.671 | 0.171 | 0.696 | 0.715 | 0.642 | 0.477 | 0.472 | 0.257 | 0.743 | 0.377 | 0.62 | 0.25 | 0.66 |  |  |  | 
11 | O=C(c1cc(Cc2n[nH]c(=O)c3ccccc23)ccc1F)N1CCN(C(=O)C2CC2)CC1 [Olaparib] + CN(CC[C@H](CSC1=CC=CC=C1)NC2=C(C=C(C=C2)S(=O)(=O)NC(=O)C3=CC=C(C=C3)N4CCC(CC4)[C@H](C5=CC=CC=C5C6=CC=C(C=C6)Cl)O)S(=O)(=O)C(F)(F)F)CCO [AZD4320] (first compound max 10 µM, 7x7, partner max 1 µM) |  | 0.823 | 0.0175 | 0.26 | 0.0992 | 0.219 | 0.979 | 1 | 0.844 | 0.198 | 0.0607 | 0.105 | 0.48 | 0.304 | 0.133 | 0.709 |  |  |  | 
12 | C[C@@H]1COCCN1c1cc(C2([S@](C)(=N)=O)CC2)nc(-c2ccnc3[nH]ccc23)n1 [AZD6738] + C1CC(C1)(C(=O)[O-])C(=O)[O-].N.N.[Pt+2] [Carboplatin] (first compound max 10 µM, 7x7, partner max 10 µM) |  | 0.567 | 0.625 | 0.649 | 0.351 | 0.521 | 0.916 | 0.974 | 0.366 | 0.581 | 0.194 | 0.771 | 0.497 | 0.289 | 0.456 | 0.665 |  |  |  | 
13 | Cc1c2c(nn1C)CSCc1cc(n(C)n1)CSc1cc(c3ccccc3c1)OCCCc1c(C(=O)O)n(C)c3c-2c(Cl)ccc13 [AZD5991] + Nc1ccn([C@@H]2O[C@H](CO)[C@@H](O)C2(F)F)c(=O)n1 [Gemcitabine] (first compound max 1 µM, 7x7, partner max 0.3 µM) |  | 0.829 | 0.782 | 0.757 | 0.441 | 0.737 | 1 | 1 | 0.685 | 0.455 | 0.784 | 0.543 | 0.19 | 0.565 | 0.811 | 0.844 |  |  |  | 
14 | O=C(c1cc(Cc2n[nH]c(=O)c3ccccc23)ccc1F)N1CCN(C(=O)C2CC2)CC1 [Olaparib] + Cc1c2c(nn1C)CSCc1cc(n(C)n1)CSc1cc(c3ccccc3c1)OCCCc1c(C(=O)O)n(C)c3c-2c(Cl)ccc13 [AZD5991] (first compound max 10 µM, 7x7, partner max 1 µM) |  | 0.0291 | 0.119 | 0.146 | 0.121 | 0.0973 | 1 | 1 | 0.0919 | 0.146 | 0.479 | 0.0347 | 0.216 | 0.427 | 0.157 | 0.491 |  |  |  | 
